Test results taken from patent US6635629B2, “3-nitrogen-6,7-dioxygen steroids and uses related thereto” (Inflazyme Pharmaceuticals Ltd., priority 2000, dated 2003).
In brackets after ≈: the same amount, converted by molar mass. Several values for one entry are separate records, joined by “and”; a condition that tells them apart may be missing. Equal entries are not always repeated.

Tests used:
[1] = Pharmacokinetics in the rat; assay type: in vivo; settings: plasma; for bioavailability: po
[2] = physchem; settings: water
[3] = system: sensitized Brown Norway rats; assay: Ovalbumin-induced accumulation of inflammatory cells in lung lavage fluid of sensitized Brown Norway rats; assay type: in vivo, rat; settings: p.o.
Method: The ability of a compound to inhibit the allergen-induced accumulation of inflammatory cells such as eosinophils and neutrophils in the lavage fluid obtained from sensitized animals is indicative of that compound's anti-asthma activity. […] The test is conducted as follows.
Male Brown Norway rats are sensitized to ovalbumin by single intraperitoneal injection of 1 mg ovalbumin adsorbed to 100 mg A(OH)3 (alum) in 1 ml sterile saline (saline control rats receive only sterile saline) on day 1, and allowed to sensitize until day 21. […] Rats are challenged with 0.5% ovalbumin in saline generated using a Devillbis nebulizer for 60 min on day 21.
Forty-eight hrs after challenge, animals are sacrificed with an overdose of intraperitoneally-delivered sodium pentobarbitol and the lungs are lavaged with cold 2×7 ml phosphate buffered saline. The recovered lavage fluid is placed on ice. The bronchoalveolar lavage fluid is centrifuged and the supernatant removed. The pellet is resuspended in phosphate buffered saline at 4° C. Cytospins are prepared and stained for differentiation and enumeration of cell types.
Test compound was administered in 300 μl corn oil (Tables 7 and 8) or water (Table 9), which were used as vehicles. Control animals received 300 μl corn oil or water alone, i.e., no drug. […] A negative value in Table 7, 8, or 9 indicates an exacerbation of the effect over the control animal.

[4] = Pharmacokinetics in the monkey; assay type: in vivo; settings: plasma; for bioavailability: po
[5] = system: Jurkat clone E6.1 cells; assay: Antigen-induced (anti-CD3 mAb) calcium flux in Jurkat clone E6.1 cells; assay type: cell-based; settings: 20 μM; anti-CD3 mAb 4 μg/mL; Fura 2AM
Description: Elevation of cytoplasmic calcium concentration is a common and crucial event which follows the activation of many types of cell surface receptors. Increases in intracellular calcium that occur following agonist activation of inositol lipid hydrolysis are the results of calcium release from the endoplasmic reticulum and the influx of calcium through the plasma membrane. Increases in cytosolic calcium concentration are involved in many important cellular responses in the inflammatory process including adhesion, motility, gene expression, proliferation, and degranulation. Changes in intracellular calcium centrations can affect both short and long term cellular responses. An assay method to evaluate a test compound's impact on calcium flux is provided as follows.
The resulting supernatants are discarded and each pellet is washed in 10 mL HBSS. Cell suspensions are accumulated and centrifuged for 5 minutes at 900 RPM to form a cell pellet. The resulting supernatant is discarded and the pellet is resuspended in HBSS at 1×10^7 cells/mL. The cell suspension is transferred to a 20 mm petri dish and incubated at 37° C., 5% CO2 for 20 minutes.
One volume of Fura 2AM is mixed to one volume of detergent Pluronic F127. Cells are labeled with 4 μL of probe solution to each mL of cell suspension. The petri dish is wrapped in aluminum foil to protect from light and placed on a plate shaker for 30 minutes at room temperature.
The following steps are done in the laminar flow hood with the fluorescent lights turned off. The petri dish is removed from the shaker and the labeled cell suspension is transferred to a 15 mL conical tube and washed twice with HBSS as above. The cell pellet is resuspended in 12 mL HBSS and left wrapped in foil for 30 minutes at room temperature. The labeled cell suspension is aliquoted (100 μL/well) into a Dynex 96 well white opaque tissue culture plate. […] Selected compounds were tested for dose related activity. Test samples and activator (anti—CD3 mAb at final concentration of 4 μg/mL, PharMingen) are added manually (50 μL), such that the minimum time to acquire the first data point after stimulation is approximately 30 seconds. The calcium influx response to anti-CD3 mAb is measured as an “end point” assay. The entire plate is read in 100 seconds using a kinetic of 1 second per well.
The plate is read before the addition of anti-CD3 to monitor non-specific effect of samples/drugs. Fluorescence emission is measured at 510 nm with excitation alternating between 340 and 380 every second using an excitation/emission filter pair. Data from these dual wavelengths are represented as a ratio of 2 excitations wavelengths. This ratio is independent of intracellular dye and cell concentrations, enabling real comparison between experiments.

[6] = system: rat mast cell line (RBL-2H3); assay: Antigen-induced release of hexosaminidase from a rat mast cell line (RBL-2H3); assay type: cell-based; settings: inhibition of DNP-HSA antigen-induced hexosaminidase release; tested at 0.3, 3, 10 and 30 μM; read-out: Hex IC50
Method: The anti-allergic effects of a compound of the present invention was evaluated by measuring its effect on antigen-induced secretion of hexosaminidase from a passively sensitized rat mast cell line. The ability of a test compound to inhibit the release of mast cell granule contents, e.g., histamine and hexosaminidase, is indicative of the anti-allergy and/or anti-asthma activity of the compound. Hexosaminidase is released from the mast cell granule along with histamine and other mediators during antigen challenge. The test is performed as follows.
RBL-2H3 cells are grown in culture and passively sensitized for 1 hour at 37° C. to dinitrophenol (DNP) using anti-human-DNP (IgE). Cells are incubated with test compound for 30 minutes at 37° C. and stimulated with 0.5 μg/ml DNP-HSA (antigen) for 30 minutes. Aliquots of the supernatant are removed and used to measure the amount of hexosaminidase released during challenge with the antigen. […] The effect of each test compound is determined as a percentage of the antigen-induced response (minus background release) obtained in the presence of DMSO alone. These values are used to determine the degrees of inhibition of antigen-induced hexosaminidase release from the cells.

[7] = Metabolic stability in human liver S9 fractions; assay type: in vitro ADME; settings: 10 μM, 37° C., relative to 0 minute incubation; for % remaining after 15 min: 15 min incubation; for % remaining after 30 min: 30 min incubation
Description: The therapeutic effectiveness of a test compound can be often directly related to its metabolic stability in vivo. The majority of known, marketed drugs are metabolized by a group of enzymes known as P450 enzymes. The S9 fraction of human liver contains all the P450 enzymes and also cytoplasmic enzymes that may be involved in the metabolism of new chemical entities. Metabolism in vitro using human S9 fractions is a standard assay to evaluate relative metabolic stability of new compounds. The test is performed as follows.
Reagents are thawed on ice and combined to make up a Master Mix as follows: Potassium phosphate (100 mM, pH 7), G6P (0.25 mM), G6PDH (2 U/ml), NADPH (1 mM), UDP (0.25 mM), APPS (0.25 mM), and S9 fraction (2 mg/ml). A volume of 498 μl of the Master mix is dispensed into each microcentrifuge tube. A volume of 2 μl of 2.5 mM test compound (final concentration of 10 μM) is dispensed into the center of the lid of the appropriate tube, and the lids gently closed to prevent mixing. Synchronous combination of test compound and master mix is achieved by simultaneous ten times inversion of the tubes, which are then incubated at 37° C. and shaken at 150 rpm for the appropriate incubation times. While incubation is in progress, all 0 time samples are mixed individually by three times inversion followed by the immediate addition of 500 μl ice cold acetonitrile with three times inversion to stop the reaction. Immediately after each 15 minutes and 30 minutes incubation is complete, ice cold acetonitrile is added to each tube and the tubes mixed by three times inversion. All sample tubes are incubated at −80° C. for a minimum of 15 minutes, thawed and remixed by inversion. Aliquots of 650 μl are transferred to Chromatographic Specialties micro-spin filter system tubes (0.2 μm nylon membrane, C618505) and centrifuged at 13,000 rpm for 48 seconds. The sample filtrates are stored at −80° C.
Sample filtrates are analyzed on LCMS, and percent remaining after 15 and 30 minute incubation is calculated relative to the 0 minute incubation.
The metabolic stability of various compounds are summarized in Table 10 as the percent remaining after 15 or 30 minutes incubation with human liver S9 fractions.

[8] = 0.03 mg/kg, 4 days qd, water vehicle
[9] = 0.1 mg/kg, 4 days qd, water vehicle
[10] = 0.3 mg/kg, 4 days qd, water vehicle
[11] = 1 mg/kg, 4 days qd, water vehicle
[12] = 5 mg/kg/day for 4 days, corn oil vehicle, relative to control animals
[13] = 1 mg/kg/day for 4 days, corn oil vehicle, relative to control animals

Row | Structure (SMILES) | half-life [1] [h] | bioavailability [1] [%] | solubility ([2]; solubility at room temperature) [mg/mL] | % inhibition of eosinophils [3, 9] [%] | % inhibition of lymphocytes [3, 9] [%] | % inhibition of neutrophils [3, 9] [%] | % inhibition of eosinophils [3, 10] [%] | % inhibition of lymphocytes [3, 10] [%] | % inhibition of neutrophils [3, 10] [%] | % inhibition of eosinophils [3, 11] [%] | % inhibition of lymphocytes [3, 11] [%] | % inhibition of neutrophils [3, 11] [%] | % inhibition of eosinophils [3, 12] [%] | % inhibition of lymphocytes [3, 12] [%] | % inhibition of neutrophils [3, 12] [%] | half-life [4] [h] | Calcium (% inhibition at 20 μM) [5] [%] | IC50 [6] [µM] | % remaining after 15 min [7] | % remaining after 30 min [7] | further results
1 | C/C=C1/CCC2C3C(CC[C@]12C)[C@@]1(C)CC[C@H](N)CC1[C@@H](O)[C@@H]3O (stereo partly shown) [Compound 28] | 7.5 | ~100 | ~30 (≈ 90 mM) | 29 | 50 | −10 | 71 | 85 | 66 | 60 | 70 | 41 | 85 | 124 | 87 | 15 | – | – | – | – | % inhibition of eosinophils [3, 8]: 5%; % inhibition of lymphocytes [3, 8]: −5%; % inhibition of neutrophils [3, 8]: −26%; bioavailability [4]: 25 to 30%
2 | C=C1CCC2C3C(CC[C@]12C)[C@@]1(C)CC[C@H](N)CC1[C@@H](O)[C@@H]3O (stereo partly shown) [Compound 89] | 7.5 | ~100 | ~30 (≈ 93.9 mM) | 35 | 2 | 25 | 80 | 70 | 72 | 71 | 6 | 66 | 57 | 64 | 60 | 15 | 15.0 | 11.5 | – | – | solubility ([2]; solubility in water): > 100 mg/mL; bioavailability [4]: 25 to 30%
3 | COc1ccc(CNC2CCC3(C)C(C2)C(O)C(O)C2C4=C(CCC23)C(C)(C)CC4)cc1OC.Cl (stereo not shown) [Compound 142] | – | – | – | – | – | – | – | – | – | – | – | – | – | – | – | – | 13.8 | 15.9 | 80 ± 11% | 55 ± 2% | % inhibition of eosinophils [3, 13]: −131%; % inhibition of lymphocytes [3, 13]: −42%; % inhibition of neutrophils [3, 13]: −1%
4 | CCC1(C)CCC2=C1CCC1C2C(O)C(O)C2CC(N)CCC21C.Cl (stereo not shown) [Compound 143] | – | – | – | 28 | −43 | 57 | 29 | −37 | 25 | 48 | −22 | 64 | – | – | – | – | 22.6 | 8.6 | 100% and 100 ± 3% | 100% and 99 ± 10% | –
5 | CCC1(C)CCC2=C1CCC1C2C(O)C(O)C2CC(NCc3ccccc3)CCC21C.Cl (stereo not shown) [Compound 146] | – | – | – | – | – | – | – | – | – | – | – | – | – | – | – | – | 41.7 | 9 | 82 ± 6% | 63 ± 9% | % inhibition of eosinophils [3, 13]: 8%; % inhibition of lymphocytes [3, 13]: −27%; % inhibition of neutrophils [3, 13]: 24%
